Data: ChEMBL document CHEMBL1250447, “An integrated platform of genomic assays reveals small-molecule bioactivities” (Nat Chem Biol, 2008)
The source made the active and inactive calls. The rule behind the calls is not given here.

Key:
Assay type in all cases: functional, organism-based
Saccharomyces cerevisiae [1] = test: Suppression of […] gene in Saccharomyces cerevisiae harboring cdc28-as transfected with 2 uM expression vector TEplac195 at 5 uM using multicopy pool construction by TAG microarray
Saccharomyces cerevisiae [2] = test: Suppression of […] gene in Saccharomyces cerevisiae harboring cdc28-as at 2.5 uM using deletion pool construction by TAG microarray
Saccharomyces cerevisiae [3] = test: Antimicrobial activity against glc7-127 allele containing Saccharomyces cerevisiae harboring cdc28-as transfected with 2 uM expression vector TEplac195 at 25 nM using deletion pool construction
Saccharomyces cerevisiae [4] = test: Antimicrobial activity against glc7-129 allele containing Saccharomyces cerevisiae harboring cdc28-as transfected with 2 uM expression vector TEplac195 at 25 nM using deletion pool construction
Saccharomyces cerevisiae [5] = test: Suppression of TUB1 gene in Saccharomyces cerevisiae harboring cdc28-as at 15 uM using deletion pool construction by TAG microarray
Saccharomyces cerevisiae [6] = test: Suppression of TUB1 gene in Saccharomyces cerevisiae harboring cdc28-as transfected with 2 uM expression vector TEplac195 at 33.2 uM using multicopy pool construction by TAG microarray
Saccharomyces cerevisiae [7] = test: Suppression of TUB2 gene in Saccharomyces cerevisiae harboring cdc28-as transfected with 2 uM expression vector TEplac195 at 33.2 uM using multicopy pool construction by TAG microarray
Saccharomyces cerevisiae [8] = test: Suppression of TUB2 gene in Saccharomyces cerevisiae harboring cdc28-as at 15 uM using deletion pool construction by TAG microarray
Saccharomyces cerevisiae [9] = test: Antimicrobial activity against glc7-129 allele containing Saccharomyces cerevisiae harboring cdc28-as transfected with 2 uM expression vector TEplac195 at 2.5 nM using deletion pool construction
Saccharomyces cerevisiae [10] = test: Antimicrobial activity against glc7-127 allele containing Saccharomyces cerevisiae harboring cdc28-as transfected with 2 uM expression vector TEplac195 at 2.5 nM using deletion pool construction
Saccharomyces cerevisiae [11] = test: Suppression of HEM1 gene in Saccharomyces cerevisiae harboring cdc28-as at 0.002% using deletion pool construction by TAG microarray
Saccharomyces cerevisiae [12] = test: Suppression of HEM1 gene in Saccharomyces cerevisiae harboring cdc28-as transfected with 2 uM expression vector TEplac195 at 0.015% using multicopy pool construction by TAG microarray
Saccharomyces cerevisiae [13] = test: Suppression of TOS1 gene in Saccharomyces cerevisiae harboring cdc28-as transfected with 2 uM expression vector TEplac195 at 500 nM using multicopy pool construction by TAG microarray
Saccharomyces cerevisiae [14] = test: Suppression of CDC28 gene in Saccharomyces cerevisiae harboring cdc28-as transfected with 2 uM expression vector TEplac195 at 500 nM using multicopy pool construction by TAG microarray
Saccharomyces cerevisiae [15] = test: Suppression of CSH1 gene in Saccharomyces cerevisiae harboring cdc28-as transfected with 2 uM expression vector TEplac195 at 500 nM using multicopy pool construction by TAG microarray
Saccharomyces cerevisiae [16] = test: Suppression of IFA38 gene in Saccharomyces cerevisiae harboring cdc28-as transfected with 2 uM expression vector TEplac195 at 500 nM using multicopy pool construction by TAG microarray

For `C/C1=C/C(=O)O[C@@H]2C[C@@H](CC[C@H](C)/C=C\C=C\CC1)O[C@@](O)([C@@H]1CSC(=O)N1)C2`, the Activity (Saccharomyces cerevisiae [1]) was “Active” and the Activity (Saccharomyces cerevisiae [2]) was “Active”.
In the case of `COC[C@@H]([C@H](O)[C@H](O)C(=O)NCC[C@H](C)c1nc(/C=C/C[C@@H]2O[C@]3(C[C@@H](O)[C@@H]2C)O[C@H]([C@H](C[C@H](O)[C@H](C)[C@H](O)[C@H](C)/C=C(C)/C(C)=C/C=C/C(C)=C\C#N)OC)[C@H](OP(=O)(O)O)C3(C)C)co1)N(C)C`, the Activity (Saccharomyces cerevisiae [3]) is reported as “inactive” and the Activity (Saccharomyces cerevisiae [4]) is reported as “Active”.
`COC(=O)Nc1nc2cc(C(=O)c3cccs3)ccc2[nH]1` was tested, and the Activity (Saccharomyces cerevisiae [5]) was “Active”, the Activity (Saccharomyces cerevisiae [6]) was “Active” and the Activity (Saccharomyces cerevisiae [7]) was “Active”. The Activity (Saccharomyces cerevisiae [8]) was “Active”.
For `C[C@@]12C(=O)OC(=O)[C@]1(C)[C@H]1CC[C@@H]2O1`, the Activity (Saccharomyces cerevisiae [9]) was “inactive” and the Activity (Saccharomyces cerevisiae [10]) was “Active”.
With `COS(C)(=O)=O` the Activity (Saccharomyces cerevisiae [11]) was “Active” and the Activity (Saccharomyces cerevisiae [12]) was “Active”.
For `CC(C)(C)n1nc(Cc2cccc3ccccc23)c2c(N)ncnc21`, the Activity (Saccharomyces cerevisiae [13]) was “Active”, the Activity (Saccharomyces cerevisiae [14]) was “Active” and the Activity (Saccharomyces cerevisiae [15]) was “Active”. For the same compound, the Activity (Saccharomyces cerevisiae [16]) was “Active”.
